Entries after “also recorded” stand apart in the source; their conditions may differ. No end group written: not given here.
Test system: iPSC-derived cortical neurons from MPS IIIA and MPS IIIC patients
Assay: Synaptic protein markers and BDNF in iPSC-derived cultured cortical neurons (immunocytochemistry)
Assay type: cell-based, human
Conditions: 10 μM in culture; MPS IIIA and MPS IIIC patient neurons
Description: Generation of iPSC lines MPS III patient fibroblast lines were obtained from the Coriell Institute for Medical Research (NJ, USA), or from the hospitals were the patients were diagnosed/followed with the informed consent of patient's families. The fibroblasts were propagated in Dulbecco's Modified Eagle Medium (DMEM, ThermoFisher) with 10% fetal bovine serum (FBS) and 1% Antibiotic-Antimycotic (15240062, ThermoFisher) and tested for mycoplasma. The cells were further reprogrammed into iPSCs at the CHUSJ iPSC Platform using a non-integrating CytoTune-Sendai viral reprograming kit (A16517, Thermo Fisher Scientific, MA, USA) according to the manufacture's protocol. Two colonies for each iPSC line were used for further proliferation, iPSCs were expanded and maintained on six-well plates coated with Matrigel mTeSR™ Plus medium at 37° C., in 5% CO2/5% O2 atmosphere following the medium manufacturer's protocol. […]
Induction of cortical NPC and cortical neurons iPSCs were differentiated into cortical forebrain committed neural precursor cells (NPCs) by dual SMAD inhibition by passaging iPSCs over to poly-L-ornithine (PO)/laminin coated dishes. […] After induction for 3 weeks the cells were analyzed by ICH for the presence of neuronal markers PAX6, and TUBB3, confirmation of disease-specific enzymatic deficiencies and lysosomal storage phenotype (increased size of LAMP2+ puncta by ICH). […]

AVP6: N-terminally acetylated Semax, a nootropic peptide having the amino acid sequence of MEHFPGP (SEQ ID NO:1) (Ac-MEHFPGP)
levels of BDNF+, VGLUT1+ and PSD-95+ puncta: significantly increased
levels of VGLUT1+, PSD-95+, SYN1+ and BDNF+ puncta: rescues reduced levels of synaptic markers; also recorded: significantly increased
